In data set [1] the test system is NET. Put plainly: NE release study. The class given is biochemical.
In data set [2] the target is dopamine transporter (DAT) (Rattus norvegicus (Rat), UniProt P23977). Put plainly: Competition radioligand binding, [3H]WIN35428, rat brain membranes. The settings on record: DA transporter. From the text: (§1) Rat brain (Sprague Dawley, 200-250 g) synaptosomes were isolated from midbrain and hindbrain for serotonin transporter assays, striatum for dopamine transporter assays, and hippocampus plus overlying occipital cortex for norepinephrine transporter assays. Radioligands used were: [^3H]Citalopram 81.4 Ci/mmol (PerkinElmer NET1039250UC; Lot No. 2960876). [^3H]WIN35428 82.8 Ci/mmol (PerkinElmer NET1033250UC; Lot No. 2891473). [^3H]Nisoxetine 79.2 Ci/mmol (PerkinElmer NET1084250UC; Lot No. 2970324). Non-specific compounds used were: Citalopram (Tocris Bioscience 1427). JHW007 (Tocris Bioscience 4351). Nomifensine (Abcam ab146004). Test Compounds for the study were: racemic methylone HCl; (R)-methylone HCl; (S)-methylone HCl.
(§2) For membrane preparations, rat brains were dissected, tissue was added to ice-cold lysis buffer (50 mM Tris HCl; 5 mM MgCl2; 5 mM EDTA; protease inhibitor cocktail) and homogenized. The homogenate was centrifuged at 100×g for 2 minutes and the supernatant divided into polypropylene Eppendorf tubes. The supernatants were centrifuged at 17,000×g for 10 minutes at 4° C. to re-pellet the cell lysate. The pellet was resuspended in fresh wash buffer (50 mM Tris-HCl; 5 mM MgCl2; 5 mM EDTA) and centrifuged a third time at 17,000×g for 10 minutes at 4° C. The pellet was resuspended in wash buffer containing 10% sucrose as a cryoprotectant, divided into aliquots (0.3 mL) and stored at −80° C. A sample of the homogenate was analyzed for protein content using the MERCK® BCA assay. On the day of the assay, the membrane preparation was thawed and the pellet resuspended in final assay buffer.
(§3) Competition binding assays were carried out in 96-well polypropylene plates in a final volume of 250 μL per well. To each well was added 150 μL membranes, 50 μL of test compound, non-specific compound or buffer, and 50 μL radioligand solution in buffer. The plate was incubated at 30° C. for 90 minutes with gentle agitation. The incubation was stopped by vacuum filtration onto presoaked (wash buffer with PEI) GF/C filters using a 96-well FILTERMATE™ harvester, followed by 5 washes with ice-cold wash buffer. Filters were then dried under a warm air stream, sealed in polyethylene, scintillation cocktail added, and the radioactivity counted in a WALLAC® TriLux 1450 MicroBeta counter. For each concentration of drug, non-specific binding was subtracted from total binding to give specific binding. Data was fitted using the non-linear curve fitting routines in PRISM® (Graphpad Software Inc) to determine IC50. Ki was subsequently calculated using the ChengPrusoff equation.

For data set [3], the target named is T1, DAT (Rattus norvegicus (Rat), UniProt P23977). Put plainly: DA release study. The format is biochemical.
The target in data set [4] is T2, SERT (Rattus norvegicus (Rat), UniProt P31652). Put plainly: [3H]5-HT uptake inhibition in rat brain synaptosomes. The class given is biochemical. Here is the method:
(§4) Materials used were: Neurotransmitters [3H]5-HT (PerkinElmer, NET498001MC) [^3H]Dopamine (PerkinElmer, NET673250UC) [^3H]Norepinephrine (PerkinElmer, NET377250UC); Test Compounds Racemic methylone HCl (Merck, M-140); (R)-methylone HCl (Pisgah Labs); (S)-methylone HCl (Pisgah Labs); Reference Compounds Citalopram (Tocris Bioscience 1427). JHW007 (Tocris Bioscience 4351). Nomifensine (Abcam ab146004).
(§5) Synaptosomes were prepared from Sprague Dawley (200-250 g) rat brain regions (hippocampus for NE, striatum for DA and midbrain for 5-HT) using standard protocols. Tissues were dissected, added to sucrose buffer (0.32 M), homogenized with a dounce-homogenizer and centrifuged at 100×g to remove cells and debris. Supernatant was collected and centrifuged 17,000×g for 10 minutes at 4° C. to pellet the synaptosomes. The pellet was resuspended in fresh assay buffer.
(§6) Uptake assays were carried out in 96-well plates in a final volume of 250 μL per well. To each well was added 150 μL synaptosomes, 50 μL test, non-specific compound or buffer alone. The plate was incubated at 30° C. for 30 minutes with gentle agitation. 50 μL radiolabeled neurotransmitter in buffer was then added to each well to initiate the uptake. The plate was incubated at 30° C. for a further 5 minutes with gentle agitation. The incubation was stopped by vacuum filtration onto presoaked GF/C filters using a 96-well FilterMate™ harvester, followed by 3 washes with ice-cold wash buffer. Filters were then dried under a warm air stream, sealed in polyethylene, scintillation cocktail added, and the radioactivity counted in a Wallac® TriLux 1450 MicroBeta counter.
(§7) For each concentration of drug, non-specific uptake was subtracted from total uptake to give specific uptake. Data was fitted using the non-linear curve fitting routines in Prism® (Graphpad Software Inc) to determine IC50.

In data set [5] the test system is rat forced swim test (FST). Put plainly: Rat forced swim test (FST). The class given is in vivo. Particulars: 10 mg/kg, IP. Here is the method:
All FST studies are performed and scored by an experimenter blind to treatment group and according to standard protocols. Briefly, rats are placed in a circular plexiglass container filled with water. Water temperature is maintained at 22-25° C. and changed for every animal. Day 1 (Training) consists of a 15 min acclimation trial, and Day 2 (Testing, 24 h later) consists of the 5 min test. A time sampling procedure is employed where animals are observed every 5 seconds for the duration of the test session (60 counts or 5 minutes) and scored for immobility (defined as the failure to struggle), swimming (defined as a circular movement around the tank), or climbing (defined as an upwards escape behavior). Data are expressed as the percent of the testing session (e.g., the number of immobility counts divided by 60). A p-value less than 0.05 indicates statistical significance after typical statistical analyses (e.g., unpaired t-test or ANOVA).
To determine that the prodrug and/or enantiomer has an antidepressant-like effect and to compare it to methylone, rats are treated with each compound 30 min prior to testing. Additional tests are run 24, 72, 168 hours post-dose or longer.
Racemic methylone (10 mg/kg, IP) has a maximal antidepressant-like effect in the rat forced swim test (FST), reducing immobility by nearly 100% compared to vehicle treated controls. To determine whether one enantiomer of methylone could mimic the robust antidepressant-like effect of racemic methylone, rats were treated with a single dose of racemic methylone, (R)-methylone, (S)-methylone (all 10 mg/kg, IP) or vehicle 30 min before testing in the FST. […] Therefore, all of the activity of methylone appears to be driven by the activity of one enantiomer ((S)-methylone).

The target in data set [6] is T1, DAT. The data set can be described thus: [3H]Dopamine uptake inhibition in rat brain synaptosomes. The format is biochemical. The settings on record: DA. Here is the method: as §4, §5, §6, §7
For data set [7], the target named is T2, SERT. Put plainly: 5-HT release study. The class given is biochemical.
The test system of the next data set is cardiac ion channels. The data set can be described thus: In vitro cardiovascular safety screening test (ion channel panel, overall). The class given is cell-based, human. Particulars: whole panel. Here is the method:
An in vitro cardiovascular safety screening test was run to investigate the effects of racemic methylone and two methylone stereoisomers ((R)-methylone and (S)-methylone) on selected ion channels critically linked to cardiovascular function and activity.
Electrophysiological assays were conducted to profile three compounds ((R)-methylone, (S)-methylone, or racemic methylone) for activities on the ion channel targets specified below using the Qube electrophysiological platform. Where presented, IC50 values were determined by a non-linear, least squares regression analysis. Reference standards were run as an integral part of each assay to ensure the validity of the results obtained.
Ion Channels tested were Eurofins Panel Part Number: CPROFullQB2DR Voltage-Gated Sodium: HEK-Nav1.5 (Peak), HEK-Nav1.5 (Late, Antagonist) Voltage-Gated Potassium: HEK-Kv4.3/KChIP2, CHO-hERG, CHO-KCNQ1/minK Voltage-Gated Calcium: HEK-Cav1.2 Inward-Rectifying Voltage-Gated Potassium: HEK-Kir2.1.

Data set [8] deals with NET. Put plainly: [3H]Norepinephrine uptake inhibition in rat brain synaptosomes. The format is biochemical. Particulars: NE. Here is the method: as §4, §5, §6, §7
The target in data set [9] is serotonin transporter (SERT) (Rattus norvegicus (Rat), UniProt P31652). Put plainly: Competition radioligand binding, [3H]Citalopram, rat brain membranes. Particulars: 5-HT transporter.
Source text: as §1, §2, §3

Data set [10] has as its target norepinephrine transporter (NET). The data set can be described thus: Competition radioligand binding, [3H]Nisoxetine, rat brain membranes. The settings on record: NE transporter.
Source text: as §1, §2, §3

For data set [11] the following is noted: self-administration, healthy volunteers; cited from earlier work.
The subject of the next data set is mouse model of PTSD. Particulars: 7.5 mg/kg, 30 minutes prior to extinction training; Young et al. 2015; cited from earlier work.

For orientation: EC50 means the concentration needed to bring the measured effect to its halfway point. A high value points to a need for much substance. For orientation: IC50 means the concentration that gives 50% inhibition. Higher therefore signals weaker potency in that assay. What is called Ki is a measure of affinity in units of concentration, obtained from inhibition or displacement. Higher therefore signals lower affinity. In the case of `CNC(C)C(=O)c1ccc2c(c1)OCO2` (racemic) [Racemic methylone], the EC50 is 330 nM in the data set on NET [1], 4790 nM on DAT [3] and 620 nM on SERT [7]. Further, the IC50 in [2] is 7110 nM; at SERT [4], 811 nM; on DAT [6], 1430 nM; in the data set with NET [8], 355 nM; in data set [9] it was 12300 nM; in data set [10], 3100 nM. Also, the Ki in data set [2] (Cheng-Prusoff) is 3530 nM; in [9] (Cheng-Prusoff), 7440 nM; in data set [10] (Cheng-Prusoff), 1460 nM. Moreover, the “Reduction of immobility compared to vehicle treated controls” value in data set [5] was around 100%. The “Effect on the cardiac ion channels tested” value in the data set with cardiac ion channels is listed as “do not directly inhibit the activity of cardiac channels”.

Take `CNC(C)Cc1ccc2c(c1)OCO2` (stereo not shown) [MDMA, 3,4-methylenedioxymethamphetamine, reference compound]: the “Systolic and diastolic blood pressure” value in data set [11] is “significant increase”. For the same compound, the “Reduced freezing compared to saline injected controls (extinction recall)” value in the data set with mouse model of PTSD is on record as 35%.

The values above are taken from patent publication US20240327372A1, “PREPARATION OF PHENE[…] […] STEREOISOMERS THEREOF AND PRECURSORS THEREOF” (priority 2022, published 2024).
